Assay results as given in US12036222B2, “Methods of treating cancers overexpressing CARM1 with EZH2 inhibitors and a PARP inhibitor” (The Wistar Institut of Anatomy and Biology, priority 2018, dated 2024).
“Also recorded” adds a separate entry of the source.

Legend:
[1] = tested on: BAF155Me; test: Immunoblot for BAF155Me levels; format: cell-based, human; settings: 10 μM GSK126, 7 days
Experimental: FIG. 53 illustrates that the indicated CARM1-high cells were infected with the indicated shCARM1 or controls. Expression of CARM1 and BAF155Me levels and loading control (p-actin) was determined by immunoblot. FIG. 54 illustrates that the indicated cells were treated with 10 μM GSK126 or vehicle control for 7 days. Expression of BAF155 and a loading control (0-actin) was determined by immunoblot.

[2] = target: T1, PRC2 subunits EZH2 and SUZ12 interaction (Homo sapiens, UniProt Q15910); test: Immunoprecipitation of EZH2 and immunoblot for SUZ12; format: cell-based; settings: A1847 cells, 10 μM GSK126, 7 days
T1 construct: endogenous in cells; host or cells: A1847 cells (CARM1-high)
T1 sequence (Q15910 whole entry): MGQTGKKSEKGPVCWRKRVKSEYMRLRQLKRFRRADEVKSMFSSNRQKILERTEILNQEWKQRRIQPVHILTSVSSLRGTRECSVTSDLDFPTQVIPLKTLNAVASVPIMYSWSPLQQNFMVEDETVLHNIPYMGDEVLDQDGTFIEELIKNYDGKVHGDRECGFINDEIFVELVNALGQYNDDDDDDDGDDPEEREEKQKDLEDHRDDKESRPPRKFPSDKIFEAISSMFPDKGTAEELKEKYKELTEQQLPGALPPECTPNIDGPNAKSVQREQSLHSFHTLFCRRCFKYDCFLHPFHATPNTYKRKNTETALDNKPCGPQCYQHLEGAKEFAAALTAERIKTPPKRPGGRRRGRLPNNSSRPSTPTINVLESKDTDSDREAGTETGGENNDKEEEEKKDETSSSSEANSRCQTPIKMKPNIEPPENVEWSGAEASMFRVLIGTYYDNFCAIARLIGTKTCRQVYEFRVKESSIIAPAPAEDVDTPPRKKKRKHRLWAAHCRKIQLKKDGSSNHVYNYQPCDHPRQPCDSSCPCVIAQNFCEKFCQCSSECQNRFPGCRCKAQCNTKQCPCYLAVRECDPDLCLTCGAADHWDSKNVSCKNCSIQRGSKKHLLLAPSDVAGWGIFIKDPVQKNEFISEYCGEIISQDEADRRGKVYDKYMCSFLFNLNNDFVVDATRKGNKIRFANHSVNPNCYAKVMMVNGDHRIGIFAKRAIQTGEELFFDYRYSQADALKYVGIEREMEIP
T1 sequence (Q15022 whole entry partner): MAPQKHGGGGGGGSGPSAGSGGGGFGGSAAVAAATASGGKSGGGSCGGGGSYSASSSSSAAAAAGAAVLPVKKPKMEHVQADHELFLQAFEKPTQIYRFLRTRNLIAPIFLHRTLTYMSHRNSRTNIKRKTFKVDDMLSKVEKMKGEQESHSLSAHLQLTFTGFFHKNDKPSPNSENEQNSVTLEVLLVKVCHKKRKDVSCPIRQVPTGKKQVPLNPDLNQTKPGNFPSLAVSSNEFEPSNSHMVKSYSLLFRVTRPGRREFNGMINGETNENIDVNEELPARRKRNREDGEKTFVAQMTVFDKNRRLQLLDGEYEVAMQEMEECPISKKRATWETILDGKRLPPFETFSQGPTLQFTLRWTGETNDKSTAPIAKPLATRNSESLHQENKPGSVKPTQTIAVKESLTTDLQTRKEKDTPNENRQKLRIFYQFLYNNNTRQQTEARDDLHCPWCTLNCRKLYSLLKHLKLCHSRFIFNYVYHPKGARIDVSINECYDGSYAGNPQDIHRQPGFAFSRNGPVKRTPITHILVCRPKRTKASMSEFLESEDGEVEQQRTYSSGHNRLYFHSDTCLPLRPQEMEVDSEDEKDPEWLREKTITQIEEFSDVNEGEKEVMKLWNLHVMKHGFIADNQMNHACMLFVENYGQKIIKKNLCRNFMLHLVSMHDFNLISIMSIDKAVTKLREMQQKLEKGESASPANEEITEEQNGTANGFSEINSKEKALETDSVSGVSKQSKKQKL
T1 sequence (O75530 whole entry partner): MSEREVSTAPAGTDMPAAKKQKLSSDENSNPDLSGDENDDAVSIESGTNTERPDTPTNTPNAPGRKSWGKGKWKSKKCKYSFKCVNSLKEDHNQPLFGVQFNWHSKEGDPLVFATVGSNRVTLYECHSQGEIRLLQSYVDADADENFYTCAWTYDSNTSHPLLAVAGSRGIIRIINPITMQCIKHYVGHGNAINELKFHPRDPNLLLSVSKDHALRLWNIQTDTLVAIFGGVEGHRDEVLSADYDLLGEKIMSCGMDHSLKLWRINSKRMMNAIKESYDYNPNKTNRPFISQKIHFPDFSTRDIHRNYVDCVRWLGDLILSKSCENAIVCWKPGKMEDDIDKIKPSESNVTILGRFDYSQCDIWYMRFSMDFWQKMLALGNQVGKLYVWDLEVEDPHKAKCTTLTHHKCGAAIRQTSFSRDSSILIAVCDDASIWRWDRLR
Experimental: A1847 cells were treated with 10 μM GSK126 or vehicle control for 7 days. The cells were subjected to immunoprecipitation (IP) analysis by using an anti-EZH2 antibody. The immunoprecipitated product was examined for EZH2 and SUZ12 expression by immunoblot. An isotype-matched IgG was used as a control.

[3] = tested on: A1847 parental and CARM1 knockout cells; test: Epigenetic targeting small molecule set screen (14-day colony formation); format: cell-based, human; settings: 14 days, normalized to vehicle
Experimental: FIG. 26 illustrates that CARM1-expressing cells are selectively sensitized to EZH2 inhibitors. Equal number of parental control or CARM1 knockout […] cells were plated and treated with each of the 23 individual epigenetic inhibitors for 14 days. The media with the inhibitors was refreshed every 3 days. Cell growth was quantified as integrated density using NIH Image J software. Quantification of the average integrated density graphed as a scatter plot. The X-axis indicates the relative growth of treated CARM1 high parental […] cells compared with DMSO vehicle controls. Y-axis indicates the relative growth of treated CARM1 knockout […] cells compared with DMSO vehicle controls. n=4; and error bars represents SEM. FIG. 27 illustrates a table of EZH2 inhibitors that are selective against CARM1 expression. CARM1-high parental controls and CARM1 knockout […] cells were treated with the indicated concentration of the small molecules in a 14-day colony formation assay. Integrated density for each well was calculated using NIH Image J software. The relative growth of the indicated cells was determined by normalizing to the vehicle control treated cells. n=4 and p-value was calculated using a two-tailed t-test. […] parental and CARM1 knockout cells were plated in 24-well plates and treated with 24 epigenetic compounds. Cell medium was changed every three days with appropriate drug doses for 14 days or until control wells became confluent. Colonies were washed twice with PBS and fixed with 10% methanol and 10% acetic acid in distilled water. Fixed colonies were stained with 0.005% crystal violet. Integrated density was measured using NIH ImageJ software as a surrogate for cell growth.

[4] = tested on: CARM1-depleted cells; test: Colony formation assay with CARM1-depleted cells; format: cell-based; settings: CARM1-depleted vs normal cells, GSK126 vs DMSO
Experimental: To confirm the relationship between CARM1 overexpression and sensitivity to EZH2 inhibition, further studies were performed to assess the impact of CARM1 depletion. In FIG. 9, a Western blot of CARM1 and BAF155me2 in CARM1 depleted cells with a control (Actin) is shown. In addition, the results of a colony formation assay (unstained, magnified) with normal and CARM1-depleted cells, in DMSO (control) and treated with GSK126, are shown in FIG. 10. A colony formation assay with normal and CARM1-depleted cells, in DMSO (control) and after treatment with GSK126 is shown in FIG. 11, with the results quantified in FIG. 12. Finally, FIG. 13 illustrates the results of treatment of CARM1 depleted cells with GSK126.
500 to 5,000 cell were plated into a 24 well tissue culture plate and treated with the indicated compounds. Medium was changed every three days with appropriate drug doses for 12 days or until control wells became confluent. Colonies were washed twice with PBS and fixed with 10% methanol and 10% acetic acid in distilled water. Fixed colonies were stained with 0.005% crystal violet. Integrated density was measured using NIH ImageJ software.

[5] = tested on: CARM1-depleted cells; test: Sensitization to Olaparib in CARM1-depleted cells; format: cell-based; settings: data not shown
Text: Therefore, CARM1-expressing EOC can be treated and ultimately eradicated by combinatory targeting EZH2 and PARP using clinically applicable small molecule inhibitors.

[6] = tested on: CARM1-expressing A1847 tumors; test: Subcutaneous xenograft model, CARM1-expressing A1847 cells; format: in vivo, NSG mice; settings: 50 mg/kg daily i.p., three weeks
Experimental: The protocols were approved by the Institutional Animal Care and Use Committee (IACUC). 5×10^6 control A1847 or A1847 CARM1 knockout cells were unilaterally injected subcutaneously into 6-8-week old female immunocompromised NSG mice (n=5 per group). One week after injection the mice were randomized and treated with vehicle control (20% captisol) or GSK126 (50 mg/kg daily). Tumor size was measured every 3 days for 3 weeks. At end of the experiments, tumors were surgically dissected and tumor burden was calculated based on tumor weight.
EZH2 inhibitors, such as GSK126, are used safely in clinical trials for hematopoietic malignancies (Ribrag et al. Eur J Cancer (2014) 50:197). To determine the effects of EZH2 inhibition in vivo on the growth of CARM1-expressing ovarian tumors, two xenograft models were utilized. In the subcutaneous xenograft models, the injected CARM1-expressing A1847 cells were first allowed to grow for one week to establish the tumors. Mice were then randomized and treated daily with vehicle control or GSK126 (50 mg/kg) by intraperitioneal (i.p.) injection as reported (see, e.g., Bitler et al. Nature Medicine (2015) 21:231-8 and McCabe et al. Nature (2012) 492:108-12). […] To more closely mimic the tumor microenvironment, A1847 cells were orthotopically transplanted into the bursa covering the ovary of immunocompromised NSG mice. […]

Compound: CC[C@H](C)n1cc(C)c2c(C(=O)NCc3c(C)cc(C)[nH]c3=O)cc(-c3ccc(N4CCNCC4)nc3)cc21 [GSK126, (S)-1-(sec-butyl)-N-((4,6-dimethyl-2-oxo-1,2-dihydropyridin-3-yl)methyl)-3-methyl-6-(6-(piperazin-1-yl)pyridin-3-yl)-1H-indole-4-carboxamide]
- BAF155Me levels [1]: did not affect BAF155Me levels
- interaction between PRC2 subunits EZH2 and SUZ12 [2]: did not weaken the interaction
- selective growth suppression of CARM1-expressing vs CARM1 KO cells [3]: showed selectivity against CARM1-expressing cells; also recorded: selectively sensitive
- sensitivity after CARM1 depletion [4]: abrogating the sensitivity
- sensitization to Olaparib [5]: did not promote sensitization to Olaparib
- growth of CARM1-expressing tumors [6]: significantly inhibited the growth
